Here are results for two compounds from US9403801B2 (Calitor Sciences, LLC, priority 2014, dated 2016).

The nature of data set [1]: Compound stability in human liver microsomes. It counts as in vitro ADME. The note with it: for half-life at 5 μM: compound 5 μM, NADPH 1.0 mM, 37° C.; for CLint scaled at 5 μM: in vivo CLint extrapolated. In a few lines:
(§1)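 Parent compound depletion (5 μM) was tracked by LC/MS/MS over 60 min at 37° C using NADPH-fortified microsomes at 0.5 mg protein/mL. Dextromethorphan served as positive control and denatured microsomes as negative control.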

Data set [2] is described as follows: Compound stability in rat liver microsomes. The class given is in vitro ADME. The following applies: for half-life at 5 μM: compound 5 μM, NADPH 1.0 mM, 37° C.; for CLint scaled at 5 μM: in vivo CLint extrapolated. A digest of the protocol: as §1
Data set [3] can be described thus: Pharmacokinetics after intravenous and oral administration in rats. The following applies: for Clearance (CL) after iv dosing / AUC(0-t) / half-life / Vd: dose 1 mg/kg (Ex. 27: 0.72 mg/kg), iv dosing; for F: oral bioavailability; for AUC(0-t) / half-life / Vd: rat, plasma; for Vd: read-out: Vss. It counts as in vivo. A digest of the protocol: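 Rats were dosed 1 or 2 mg/kg IV or 5 or 10 mg/kg orally, as water solution, HPMC/Tween 80, DMSO/saline, MC suspension or capsule. Plasma was sampled from 0.083 or 0.25 h up to 24 h and quantified by LC/MS/MS in MRM mode with ESI.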

In another data set the target is JAK1 (h) (Homo sapiens (Human), UniProt P23458). The data set can be described thus: JAK1 kinase assay (33P-ATP filter binding, Millipore). The class given is biochemical. A digest of the protocol: (§2)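 Radiometric assay of γ-33P-ATP incorporation into plate-immobilised MBP; kinase buffer pH 7.6 with 10 mM MgCl2, 10 μM unlabelled ATP typical, enzyme 10 or 20 nM final, 1% DMSO. Reactions ran 1 h at room temperature before scintillation counting. IC50 from 10-point half-log dilution curve, duplicates.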
JAK1 (h), sequence (P23458 whole entry): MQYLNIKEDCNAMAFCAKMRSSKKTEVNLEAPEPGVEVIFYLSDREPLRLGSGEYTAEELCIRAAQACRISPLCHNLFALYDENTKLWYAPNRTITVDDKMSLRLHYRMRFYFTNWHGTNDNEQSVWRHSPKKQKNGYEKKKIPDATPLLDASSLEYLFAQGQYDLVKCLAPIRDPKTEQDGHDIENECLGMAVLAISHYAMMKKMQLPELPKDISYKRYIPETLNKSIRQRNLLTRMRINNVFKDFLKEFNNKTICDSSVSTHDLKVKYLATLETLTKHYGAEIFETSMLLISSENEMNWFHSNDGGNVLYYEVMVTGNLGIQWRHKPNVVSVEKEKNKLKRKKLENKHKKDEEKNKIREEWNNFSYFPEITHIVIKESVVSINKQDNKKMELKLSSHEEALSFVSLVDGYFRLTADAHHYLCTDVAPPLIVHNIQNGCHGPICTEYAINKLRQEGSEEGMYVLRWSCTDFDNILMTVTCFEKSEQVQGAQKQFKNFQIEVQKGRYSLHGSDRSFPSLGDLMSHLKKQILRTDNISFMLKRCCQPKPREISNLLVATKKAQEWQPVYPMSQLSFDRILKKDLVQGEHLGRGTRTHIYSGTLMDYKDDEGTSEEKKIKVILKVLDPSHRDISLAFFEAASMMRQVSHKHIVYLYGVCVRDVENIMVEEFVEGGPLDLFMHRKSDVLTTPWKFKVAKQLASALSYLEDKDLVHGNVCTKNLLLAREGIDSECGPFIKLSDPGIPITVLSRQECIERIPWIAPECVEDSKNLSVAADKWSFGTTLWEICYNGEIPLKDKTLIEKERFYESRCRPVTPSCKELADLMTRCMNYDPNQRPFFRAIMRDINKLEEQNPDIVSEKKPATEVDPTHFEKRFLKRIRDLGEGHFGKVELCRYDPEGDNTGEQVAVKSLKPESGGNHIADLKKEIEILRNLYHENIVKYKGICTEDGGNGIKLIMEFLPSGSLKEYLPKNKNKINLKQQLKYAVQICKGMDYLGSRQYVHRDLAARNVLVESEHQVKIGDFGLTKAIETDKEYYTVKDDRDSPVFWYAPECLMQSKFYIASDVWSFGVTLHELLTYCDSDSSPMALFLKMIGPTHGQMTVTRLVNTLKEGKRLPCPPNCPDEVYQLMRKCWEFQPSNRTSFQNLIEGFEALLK

The next data set deals with JAK2 (h) (Homo sapiens (Human), UniProt O60674). The data set can be described thus: JAK2 kinase assay (33P-ATP filter binding, Millipore). It counts as biochemical. A digest of the protocol:
as §2

In the next data set the target is JAK3 (h) (Homo sapiens (Human), UniProt P52333). Put plainly: JAK3 kinase assay (33P-ATP filter binding, Millipore). It counts as biochemical. On the procedure: (§3) Kinase assays can be performed by measurement of incorporation of γ-^33P ATP into immobilized myelin basic protein (MBP). High binding white 384 well plates (Greiner) are coated with MBP (Sigma #M−1891) by incubation of 60 μL/well of 20 μg/mL MBP in Tris-buffered saline (TBS; 50 mM Tris pH 8.0, 138 mM NaCl, 2.7 mM KCl) for 24 h at 4° C. Plates are washed 3× with 100 μL TBS. Kinase reactions are carried out in a total volume of 34 μL in kinase buffer (5 mM Hepes pH 7.6, 15 mM NaCl, 0.01% bovine gamma globulin (Sigma #I-5506), 10 mM MgCl2, 1 mM DTT, 0.02% TritonX-100). Compound dilutions are performed in DMSO and added to assay wells to a final DMSO concentration of 1%. Each data point is measured in duplicate, and at least two duplicate assays are performed for each individual compound determination. Enzyme is added to final concentrations of 10 nM or 20 nM, for example. A mixture of unlabeled ATP and γ-^33P ATP is added to start the reaction (2×10^6 cpm of γ-^33P ATP per well (3000 Ci/mmole) and 10 μM unlabeled ATP, typically. The reactions are carried out for 1 h at room temperature with shaking. Plates are washed 7× with TBS, followed by the addition of 50 μL/well scintillation fluid (Wallac). Plates are read using a Wallac Trilux counter. This is only one format of such assays; various other formats are possible, as known to one skilled in the art.
JAK3 (h), sequence (P52333 whole entry): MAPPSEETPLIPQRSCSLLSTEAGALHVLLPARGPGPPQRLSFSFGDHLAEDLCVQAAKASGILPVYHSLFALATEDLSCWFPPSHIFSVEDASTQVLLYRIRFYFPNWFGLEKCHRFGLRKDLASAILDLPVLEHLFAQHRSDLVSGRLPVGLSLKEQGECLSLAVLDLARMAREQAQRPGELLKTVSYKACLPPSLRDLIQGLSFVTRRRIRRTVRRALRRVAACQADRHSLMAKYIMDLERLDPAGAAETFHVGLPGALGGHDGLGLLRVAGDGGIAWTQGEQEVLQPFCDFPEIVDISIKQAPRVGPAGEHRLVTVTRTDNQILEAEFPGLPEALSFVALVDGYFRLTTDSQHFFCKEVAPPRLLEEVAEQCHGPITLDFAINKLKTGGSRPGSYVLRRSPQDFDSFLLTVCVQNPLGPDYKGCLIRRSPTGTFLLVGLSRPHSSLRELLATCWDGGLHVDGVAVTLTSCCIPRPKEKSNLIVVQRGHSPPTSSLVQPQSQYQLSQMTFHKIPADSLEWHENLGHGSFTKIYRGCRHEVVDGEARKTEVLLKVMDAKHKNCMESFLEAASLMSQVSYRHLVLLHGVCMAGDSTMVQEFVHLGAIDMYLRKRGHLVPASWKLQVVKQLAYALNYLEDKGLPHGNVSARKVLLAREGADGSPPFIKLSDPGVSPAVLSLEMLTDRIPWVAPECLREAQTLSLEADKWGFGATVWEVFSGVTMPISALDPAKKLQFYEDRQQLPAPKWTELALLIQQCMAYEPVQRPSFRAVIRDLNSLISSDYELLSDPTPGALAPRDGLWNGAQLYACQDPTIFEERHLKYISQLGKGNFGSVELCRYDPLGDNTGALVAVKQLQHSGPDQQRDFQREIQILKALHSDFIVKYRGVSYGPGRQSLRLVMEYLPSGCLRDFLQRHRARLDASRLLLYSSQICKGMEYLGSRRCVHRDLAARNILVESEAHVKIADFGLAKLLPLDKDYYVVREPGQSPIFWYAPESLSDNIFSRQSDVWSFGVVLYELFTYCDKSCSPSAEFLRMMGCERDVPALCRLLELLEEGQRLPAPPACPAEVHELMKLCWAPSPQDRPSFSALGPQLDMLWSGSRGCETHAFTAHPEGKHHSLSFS
(§4) The above assay procedure can be used to determine the IC50 for inhibition and/or the inhibition constant, Ki. The IC50 is defined as the concentration of compound required to reduce the enzyme activity by 50% under the condition of the assay. The IC50 value is estimated by preparing a 10 point curve using a 1/2 log dilution series (for example, a typical curve may be prepared using the following compound concentrations: 3 μM, 1 μM, 0.3 μM, 0.1 μM, 0.03 μM, 0.01 μM, 0.003 μM, 0.001 μM, 0.0003 μM and 0 μM).
(§5) The kinase assays described herein were performed at Millipore UK Ltd, Dundee Technology Park, Dundee DD2 1SW, UK.

Another data set addresses TYK2 (h) (Homo sapiens (Human), UniProt P29597). Put plainly: TYK2 kinase assay (33P-ATP filter binding, Millipore). It counts as biochemical. As to the method:
as §3, §4, §5

A further data set concerns the target Aurora-A (h) (Homo sapiens (Human), UniProt O14965). Put plainly: Aurora-A kinase assay (33P-ATP filter binding, Millipore). The class given is biochemical. On the procedure: as §3, with “art. […]” for “art.”
Another data set concerns the target FLT3 (h) (Homo sapiens (Human), UniProt P36888). The data set can be described thus: FLT3 kinase assay (33P-ATP filter binding, Millipore). It counts as biochemical. On the procedure: as §3, with “art. […]” for “art.”

FLT3 (h), sequence (P36888 27-993): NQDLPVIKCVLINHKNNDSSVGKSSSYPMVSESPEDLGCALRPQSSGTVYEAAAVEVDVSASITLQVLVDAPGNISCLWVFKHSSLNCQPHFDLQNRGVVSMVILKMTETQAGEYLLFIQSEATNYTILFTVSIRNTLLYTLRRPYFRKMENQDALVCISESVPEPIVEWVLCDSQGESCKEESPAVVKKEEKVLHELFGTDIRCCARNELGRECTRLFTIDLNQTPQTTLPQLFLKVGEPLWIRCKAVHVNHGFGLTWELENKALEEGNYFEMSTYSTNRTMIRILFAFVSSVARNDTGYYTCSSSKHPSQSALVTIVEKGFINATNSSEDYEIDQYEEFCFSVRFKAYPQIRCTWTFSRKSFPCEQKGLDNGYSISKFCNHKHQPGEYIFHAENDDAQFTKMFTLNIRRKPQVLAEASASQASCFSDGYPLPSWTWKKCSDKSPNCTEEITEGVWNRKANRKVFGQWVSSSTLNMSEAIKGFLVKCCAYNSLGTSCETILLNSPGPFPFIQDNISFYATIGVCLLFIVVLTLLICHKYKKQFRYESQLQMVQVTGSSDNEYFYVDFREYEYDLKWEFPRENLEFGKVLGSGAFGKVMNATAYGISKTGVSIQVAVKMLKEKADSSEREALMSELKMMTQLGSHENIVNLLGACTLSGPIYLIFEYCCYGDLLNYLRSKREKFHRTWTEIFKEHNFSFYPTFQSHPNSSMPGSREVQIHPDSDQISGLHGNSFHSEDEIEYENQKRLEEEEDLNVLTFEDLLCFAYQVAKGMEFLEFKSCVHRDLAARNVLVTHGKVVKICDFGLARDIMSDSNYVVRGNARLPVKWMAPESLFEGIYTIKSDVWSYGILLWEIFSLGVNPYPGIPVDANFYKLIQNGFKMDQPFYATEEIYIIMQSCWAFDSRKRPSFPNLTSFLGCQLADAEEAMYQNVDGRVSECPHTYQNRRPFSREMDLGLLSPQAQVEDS
JAK2 (h), sequence (O60674 whole entry): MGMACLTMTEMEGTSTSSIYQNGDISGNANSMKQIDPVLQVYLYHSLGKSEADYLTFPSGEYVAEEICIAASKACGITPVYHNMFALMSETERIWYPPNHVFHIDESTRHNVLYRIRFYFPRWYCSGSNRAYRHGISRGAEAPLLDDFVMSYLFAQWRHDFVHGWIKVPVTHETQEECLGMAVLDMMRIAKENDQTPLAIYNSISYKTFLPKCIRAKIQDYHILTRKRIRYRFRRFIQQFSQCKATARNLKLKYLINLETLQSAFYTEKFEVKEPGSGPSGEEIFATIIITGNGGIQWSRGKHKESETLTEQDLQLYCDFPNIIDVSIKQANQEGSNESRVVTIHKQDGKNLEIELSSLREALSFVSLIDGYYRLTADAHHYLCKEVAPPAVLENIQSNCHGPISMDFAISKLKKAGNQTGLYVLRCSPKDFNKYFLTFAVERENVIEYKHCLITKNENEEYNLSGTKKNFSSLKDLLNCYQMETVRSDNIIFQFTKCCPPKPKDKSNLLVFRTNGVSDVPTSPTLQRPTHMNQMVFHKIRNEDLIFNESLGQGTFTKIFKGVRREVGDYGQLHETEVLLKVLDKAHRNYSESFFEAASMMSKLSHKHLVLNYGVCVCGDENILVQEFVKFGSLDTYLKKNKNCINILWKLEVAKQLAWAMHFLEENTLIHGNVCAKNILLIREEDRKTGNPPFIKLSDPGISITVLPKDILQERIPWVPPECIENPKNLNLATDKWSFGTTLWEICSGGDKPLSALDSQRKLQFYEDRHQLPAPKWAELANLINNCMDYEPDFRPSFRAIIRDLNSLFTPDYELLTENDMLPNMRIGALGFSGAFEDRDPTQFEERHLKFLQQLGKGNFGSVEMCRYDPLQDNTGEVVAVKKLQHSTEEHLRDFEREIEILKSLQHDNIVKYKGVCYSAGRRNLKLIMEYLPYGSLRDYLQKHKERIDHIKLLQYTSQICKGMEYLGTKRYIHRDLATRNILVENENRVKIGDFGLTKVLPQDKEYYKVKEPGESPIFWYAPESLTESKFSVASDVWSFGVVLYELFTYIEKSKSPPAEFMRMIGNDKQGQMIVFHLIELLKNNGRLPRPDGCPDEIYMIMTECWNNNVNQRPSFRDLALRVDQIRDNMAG
Aurora-A (h), sequence (O14965 whole entry): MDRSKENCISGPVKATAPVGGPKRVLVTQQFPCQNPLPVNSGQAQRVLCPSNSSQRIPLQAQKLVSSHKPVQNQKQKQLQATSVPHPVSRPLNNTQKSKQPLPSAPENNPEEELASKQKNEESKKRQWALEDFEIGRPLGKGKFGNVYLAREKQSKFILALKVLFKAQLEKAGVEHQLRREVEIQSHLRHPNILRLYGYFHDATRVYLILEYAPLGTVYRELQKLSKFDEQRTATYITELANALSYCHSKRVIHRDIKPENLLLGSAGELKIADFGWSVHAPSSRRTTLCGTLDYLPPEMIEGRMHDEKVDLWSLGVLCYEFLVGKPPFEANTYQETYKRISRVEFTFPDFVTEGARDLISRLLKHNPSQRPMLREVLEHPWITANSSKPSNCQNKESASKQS

`CC(=O)N1CCC2(CCC(Nc3nc(Nc4cnn(C)c4)ncc3Cl)CC2)CC1` [Ex. 28, 1-(9-((5-chloro-2-((1-methyl-1H-pyrazol-4-yl)amino)pyrimidin-4-yl)amino)-3-azaspiro[5.5]undecan-3-yl)ethanone]: the half-life at 5 μM in data set [1] (human, liver microsomes, pH 7.4, Human liver microsomes 0.5 mg protein/mL) is 268 min; in data set [2] (rat, liver microsomes, pH 7.4, Rat liver microsomes 0.5 mg protein/mL), 73.6 min. Further, the CLint scaled at 5 μM in data set [1] (human, liver microsomes, pH 7.4, Human liver microsomes) was 0.389 L/h/kg; in [2] (rat, liver microsomes, pH 7.4, Rat liver microsomes), 2.03 L/h/kg. In data set [3], the “Clearance (CL) after iv dosing” value was 4.26 L/h/kg. The compound also showed a F in data set [3] of 63.6%. Moreover, the AUC(0-t) in [3] is 0.251 µg·h/mL. This compound showed a half-life in [3] of 39 min. In addition, in data set [3], the Vd amounted to 3.06 L/kg. Moreover, the IC50 at JAK1 (h) stood at 0.0009 µM; on JAK2 (h) it was 0.004 µM; at JAK3 (h), 0.047 µM; at TYK2 (h) it was 0.004 µM; on Aurora-A (h), 0.022 µM; at FLT3 (h), 0.016 µM.
In the case of `Cn1cc(Nc2ncc(Cl)c(NC3CC4CN(S(C)(=O)=O)CC4C3)n2)cn1` (stereo not drawn) [Ex. 31, 5-chloro-N^2-(1-methyl-1H-pyrazol-4-yl)-N^4-(2-(methylsulfonyl)octahydrocyclopenta[c]pyrrol-5-yl)pyrimidine-2,4-diamine], the half-life at 5 μM in data set [1] (pH 7.4, Human liver microsomes 0.5 mg protein/mL) came to 67.2 min; in data set [2] (pH 7.4, Rat liver microsomes 0.5 mg protein/mL) it was 13.2 min. The CLint scaled at 5 μM in data set [1] (pH 7.4, Human liver microsomes) was 1.55 L/h/kg; in data set [2] (pH 7.4, Rat liver microsomes), 11.3 L/h/kg. Besides, the “Clearance (CL) after iv dosing” value in data set [3] turned out to be 3.67 L/h/kg. This compound displayed a F in [3] of 25.7%. Moreover, the AUC(0-t) in data set [3] is 0.272 µg·h/mL. Besides, the half-life in data set [3] was 39.6 min. Besides, the Vd in data set [3] stood at 2.06 L/kg. Further, the IC50 on JAK1 (h) was 0.001 µM; on JAK2 (h) it was 0.012 µM; at JAK3 (h), 0.178 µM; on TYK2 (h), 0.018 µM; on Aurora-A (h), 0.004 µM; at FLT3 (h), 0.134 µM.

Usually half-life stands for the time in which the quantity being followed falls by half. A word on the CLint scaled: it is the rate of metabolic loss divided by the concentration. As a reminder, the AUC(0-t) is exposure summed from dosing to a finite time, without extrapolation to infinity. In general, IC50 refers to the concentration needed to halve the response being measured. The low end stands for inhibition by little substance, the high end for a need for much substance.
